row,Compound,melting point [°C]
1,Sc1nnc(N2CCOCC2)s1,179 to 181
2,Cc1nnc(CO)n1C,155 to 157
3,COc1ccc(C2(c3ccc(OC)cc3)NC(=O)NC2=O)cc1,237 to 239
4,Cn1cc([N+](=O)[O-])cc1C(=O)NCC(=O)O,130 to 132
5,CC(C)(C)OC(=O)N1CCC(C(=O)O)(n2cccn2)CC1,159 to 161
6,NS(=O)(=O)c1ccc([N+](=O)[O-])cc1[N+](=O)[O-],149 to 151
7,Cc1cc(CS(=O)(=O)Cl)no1,43 to 45
8,Cc1nn(C)c(C)c1NC(=O)CCl,107 to 109
9,CCOC(=O)COc1ccc(C#N)cc1OC,69 to 71
10,Nc1nnc(-c2cnn(-c3ccccc3)c2)o1,283 to 285
11,Cc1cc(=O)[nH]n1C,169 to 171
12,O=S(=O)(c1ccc(C(F)(F)F)cc1)N1CCNCC1,163 to 169
13,O=C(CCl)NCC(=O)N1CCCC1,125 to 127
14,Cc1cc(N)n(N)c(=O)c1,193 to 195
15,CC(C)(C)n1cc(C#N)c(N)n1,121 to 123
16,Cc1nn(C)c(Cl)c1C#N,55 to 57
17,O=C1CCCN1C1CCNCC1,84 to 86
18,CC(=O)Nc1cccc2c1CCNC2,141 to 143
19,CC1CNC(=Nc2cnc3ccccc3c2)S1 (stereo not drawn),144 to 146
20,CC(C)(C)OC(=O)N1CC(OCCC(=O)O)C1,52 to 54
21,O=C(O)C1CCCc2sccc21 (stereo not drawn),79 to 81
22,CN1C(=O)C(C(N)=O)=C(N)C12CCCC2,255 to 257

row,Compound,melting point [°C]
1,Cc1noc(C=Cc2ccc(F)cc2)c1N,167 to 169
2,CC1(C)CCC(=CC(=O)O)CC1,88 to 90
3,Nc1ccc2[nH]c(=O)[nH]c2c1,167 to 169
4,CCc1c(O)nc(S)n(-c2ccccc2C)c1=O,178 to 180
5,COC(=O)c1cc(OC)c(OC)c(OC)c1N,44 to 45
6,CCOC(=O)c1cc(C)nc2c(C(N)=O)cnn12,198 to 200
7,O=C(O)CC1(O)CCCC1,72 to 74
8,Nc1nccc(-c2cccs2)n1,185 to 187
9,CCOC(=O)C(=O)c1nccn1C,52 to 54
10,N=C(N)NCCC(=O)O,220 to 224
11,NS(=O)(=O)C1CCCNC1 (stereo not drawn),119 to 121
12,CC(C)n1cc2cc(N)ccc2n1,105 to 107
13,NNC(=O)Cc1ccc(F)cc1,129 to 131
14,Cc1cc(=O)n2c(C)csc2c1C#N,178 to 180
15,O=[N+]([O-])c1cc(CCl)c2c(c1)COCO2,94 to 96
16,O=C1CC=NN1c1ccc(F)cc1,121 to 123
17,Nc1ccc(-c2ncc3n2CCCC3)cc1,182 to 184
18,CCCc1ccc(-c2ccc(N)cc2)cc1,64 to 66
19,CC(=O)N1CCC(NC(=O)OCC(F)(F)F)CC1,115 to 124
20,N#Cc1cccnc1Oc1ccccc1N,171 to 173
21,CN(CC(N)=O)C1CCCC1,78 to 80

# Results, then the molecule that gave them:
row,melting point [°C],Compound
1,51 to 53,Nc1c(F)cccc1Oc1ccccc1
2,191 to 193,O=C(O)c1ccc(OC2CCC2)cc1
3,46 to 48,Cc1ncc(CN)n1-c1ccccc1
4,44 to 46,Cc1cccc(CNCc2cccc(C)n2)n1
5,236 to 238,COC(=O)c1ccc(C=CC(=O)O)cc1
6,139 to 141,N#Cc1cnn(-c2cccc(Cl)c2)c1
7,148 to 150,COc1cccc(-c2cc(N)n(CCO)n2)c1
8,117 to 119,CNS(=O)(=O)c1ccc(N)cc1C
9,189 to 191,O=C(O)c1c[nH]c2nccc(Cl)c12
10,102 to 104,NCc1ccc(NC(=O)c2ccco2)cc1
11,46 to 50,CC(C)(C)OC(=O)N1CCc2ccccc21
12,71 to 73,COc1ccc(NCc2cccs2)cc1
13,225 to 227,CC1(c2cccc(C(N)=O)c2)NC(=O)NC1=O (stereo not drawn)
14,127 to 129,Nc1cccc(Cn2nc3ccccn3c2=O)c1
15,160 to 162,O=C(CCl)NCC(=O)Nc1ccc(F)c(F)c1F
16,226 to 228,Cc1nc2nccc(C(=O)O)n2n1
17,119 to 121,O=C(O)c1ccccc1CO
18,186 to 188,NNc1ccc(S(=O)(=O)N2CCCCC2)cn1
19,152 to 154,COc1c(Cl)cc(C(=O)O)cc1Cl
20,237 to 239,O=C(O)c1cccn2c(I)cnc12

row,melting point [°C],Compound
1,223 to 225,COc1ccc2c(c1)NC(=O)C2=O
2,77 to 79,COc1cc(C)ccc1C(=O)CBr
3,183 to 185,O=C(O)c1cnn(-c2ccccc2)n1
4,218 to 220,Cc1ccc(NS(=O)(=O)c2c[nH]c(C(=O)O)c2)c(C)c1
5,107 to 109,CCc1noc(-c2cc(Cl)ccc2N)n1
6,224 to 226,NC(=O)Nc1ccc([N+](=O)[O-])cc1
7,205 to 207,CN(c1ccc(-c2csc(N)n2)cc1)S(C)(=O)=O
8,179 to 181,O=C(O)c1cn(Cc2ccccn2)nn1
9,96 to 98,C#CCNC(=O)c1ccccc1N
10,62 to 64,BrCCc1ccc2ccccc2c1
11,139 to 141,NC(=O)C1CCN(Cc2cccc(N)c2)CC1
12,170 to 172,NC(=O)CNC(=O)c1cccc(N)c1
13,197 to 199,O=C(O)CCc1ccnc2ccccc12
14,82 to 84,Cc1nn(-c2ccccc2)c(N)c1-c1ccccc1
15,143 to 151,O=C(O)c1ccc([N+](=O)[O-])s1
16,139 to 141,CC(=O)Nc1ccc(OC2CCCCC2O)cc1 (stereo not drawn)
17,172 to 174,Cc1cccc(NS(=O)(=O)c2cc(C(=O)O)c(Cl)cc2Cl)c1
18,175 to 177,NC(=O)NCc1ccc(S(N)(=O)=O)cc1
19,229 to 231,NS(=O)(=O)c1c[nH]c(C(=O)O)c1
20,130 to 132,CCCCOc1ccc(C(=O)NC(C(=O)O)C(C)O)cc1 (stereo not drawn)

row,melting point [°C],Compound
1,247 to 249,Cc1ccc(-n2c(-c3ccccc3)cnc2S)c(C)c1
2,97 to 99,O=C(O)Cc1csc(-c2ccc(O)cc2)n1
3,249 to 251,Nc1cccc(-n2ccc(C(=O)O)n2)c1
4,74 to 76,O=S1(=O)CCCN1c1cccc(Br)c1
5,130 to 132,Nc1ccc(NC(=O)c2ccccc2)cc1C(F)(F)F
6,179 to 181,CC(C)C(=O)Nc1cccc(O)c1
7,303 to 305,Nc1nnc(NS(=O)(=O)c2ccccc2)[nH]1
8,219 to 221,NC(CC(=O)O)c1cccs1 (stereo not drawn)
9,159 to 161,COc1ccccc1NCC(=O)O
10,111 to 113,NS(=O)(=O)c1ccc(S(=O)(=O)Cl)c(F)c1
11,133 to 135,O=C(O)C1CCN(S(=O)(=O)c2cccs2)CC1
12,125 to 127,CS(=O)(=O)c1ccc(N)c(N)c1
13,43 to 45,CCOc1c(F)cccc1C(=O)O
14,125 to 130,CNC(=O)c1ccc(S(=O)(=O)Cl)cc1
15,154 to 156,CNC(=O)c1cc(S(=O)(=O)Cl)cn1C
16,245 to 247,O=C(O)c1cc(S(=O)(=O)NCc2cccnc2)c(Cl)cc1Cl
17,191 to 193,Cc1ccc2c(C)cc(NN)nc2c1C
18,72 to 74,COC(=O)Nc1ccc(N)cc1F
19,82 to 84,CCN(CC)S(=O)(=O)c1ccc(O)c([N+](=O)[O-])c1
20,57 to 59,CCOC(=O)c1cc(Cl)cc(Br)c1N

# From a melting point compilation (Tetko et al.)
